Data from publication PMC8513079 (Molecules, 2021).
Entries after “also recorded” stand apart in the source; their conditions may differ. Where two headings read alike, the source gives them in different places.

Tests used:
[1] = rubiscolin-6 versus rubiscolin-5; cited from earlier work
Text: (§1) In view of the results of our cAMP assay, rubiscolins can be considered DOR-biased agonists, consistent with previous reports. […] Indeed, there is a structural ...

receptor = settings: rubiscolin-6 versus rubiscolin-5; cited from earlier work
Text: as §1

DOR (CHO-K1 OPRD1) = experiment: PathHunter β-arrestin recruitment assay, DOR; format: cell-based; settings: 37 °C; for β-arrestin recruitment, DOR, in words: PathHunter, compared with 10^−5 M SNC-80, 90 min, n = 3–6
[2] = molecular target: MOR (Halotag-MOR) in HEK293 cells (Homo sapiens, UniProt P35372); experiment: cell-based; format: cell-based
MOR (Halotag-MOR) in HEK293 cells, sequence (P35372 whole entry): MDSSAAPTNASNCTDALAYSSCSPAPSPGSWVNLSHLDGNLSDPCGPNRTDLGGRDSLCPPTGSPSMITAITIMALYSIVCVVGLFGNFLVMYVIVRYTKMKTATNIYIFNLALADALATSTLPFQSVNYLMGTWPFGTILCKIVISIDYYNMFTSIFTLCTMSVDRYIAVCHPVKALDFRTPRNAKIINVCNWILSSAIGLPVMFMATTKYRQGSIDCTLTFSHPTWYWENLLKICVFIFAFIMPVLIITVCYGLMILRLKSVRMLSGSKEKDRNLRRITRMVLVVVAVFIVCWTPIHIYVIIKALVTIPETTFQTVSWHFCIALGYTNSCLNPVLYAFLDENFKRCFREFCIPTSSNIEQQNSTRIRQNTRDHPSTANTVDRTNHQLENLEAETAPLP

[3] = molecular target: T1, KOR (Halotag-KOR) in HEK293 cells (Homo sapiens, UniProt P41145); experiment: cell-based; settings: HEK293, read-out: Emax, cAMP assay, KOR (Table 1)
T1 construct: HaloTag; expressed in transfected cells
T1 sequence (P41145 whole entry): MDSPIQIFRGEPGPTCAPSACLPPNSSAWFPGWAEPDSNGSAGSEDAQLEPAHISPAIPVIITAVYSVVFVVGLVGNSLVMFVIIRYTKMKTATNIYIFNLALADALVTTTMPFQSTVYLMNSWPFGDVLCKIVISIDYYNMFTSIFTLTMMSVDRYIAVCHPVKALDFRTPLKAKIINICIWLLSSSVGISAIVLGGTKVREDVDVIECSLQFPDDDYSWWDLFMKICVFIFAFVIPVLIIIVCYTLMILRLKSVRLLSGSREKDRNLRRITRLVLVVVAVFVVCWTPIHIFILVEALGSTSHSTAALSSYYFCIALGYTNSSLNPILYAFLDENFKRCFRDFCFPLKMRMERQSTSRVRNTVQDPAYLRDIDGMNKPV

[4] = molecular target: T2, DOR (T7-tag-DOR) in HEK293 cells (Homo sapiens, UniProt P41143); experiment: cADDis cAMP assay, DOR; format: cell-based
T2 construct: T7-tag; expressed in transfected cells
T2 sequence (P41143 whole entry): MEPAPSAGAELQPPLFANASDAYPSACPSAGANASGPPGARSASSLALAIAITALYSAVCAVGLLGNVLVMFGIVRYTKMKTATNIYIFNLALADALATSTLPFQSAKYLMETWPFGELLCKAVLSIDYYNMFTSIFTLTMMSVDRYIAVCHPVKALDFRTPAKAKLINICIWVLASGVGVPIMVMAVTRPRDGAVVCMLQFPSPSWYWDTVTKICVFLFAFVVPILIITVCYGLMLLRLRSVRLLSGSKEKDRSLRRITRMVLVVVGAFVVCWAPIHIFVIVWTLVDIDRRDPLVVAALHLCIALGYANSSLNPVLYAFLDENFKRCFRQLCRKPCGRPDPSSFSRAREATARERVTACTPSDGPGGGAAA

DOR [5] = experiment: G-protein bias at DOR, cADDis cAMP versus PathHunter β-arrestin; format: cell-based; settings: concluded from cADDis cAMP and PathHunter β-arrestin assays
DOR [6] = settings: rubiscolin-5 compared with rubiscolin-6; cited from earlier work
Text: as §1

[7] = molecular target: T3, MOR/DOR heteromer (Halotag-MOR/T7-tag-DOR) in HEK293 cells (Homo sapiens, UniProt P35372+P41143); experiment: cADDis cAMP assay, MOR/DOR heteromer; format: cell-based
T3 construct: HaloTag; T7-tag; expressed in transfected cells
T3 sequence (P35372 whole entry): as the sequence (P35372 whole entry) above
T3 sequence (P41143 whole entry): as the sequence (P41143 whole entry) above

MOR (OPRM1) = experiment: PathHunter β-arrestin recruitment assay, MOR; format: cell-based; settings: compared with 10^−5 M DAMGO, 90 min, 37 °C, n = 3–6
[8] = molecular target: T1, KOR (Halotag-KOR) in HEK293 cells; experiment: CellKey impedance assay, antagonist mode, KOR; format: cell-based; settings: combined with U-50488H (10^−11–10^−5 M); negative control at 10^−5 concentration; n = 3–4
[9] = HEK293, read-out: Emax, cAMP assay, MOR (Table 1)
[10] = HEK293, read-out: Emax, cAMP assay, MOR (Table 2)
[11] = HEK293, read-out: Emax, cAMP assay, DOR (Table 1)
[12] = HEK293, read-out: Emax, cAMP assay, DOR (Table 2)
[13] = cADDis cAMP assay, HEK293 T7-tag-DOR

Row | Compound | β-arrestin recruitment, DOR, in words (DOR (CHO-K1 OPRD1)) | Emax [2, 9] | Emax [2, 10] | Emax [3] | EC50 [4] | Emax [4, 11] | Emax [4, 12] | effect through G-protein-mediated pathway (cAMP), DOR, in words [4, 13] | G-protein bias / agonist type at DOR (DOR [5]) | also measured
1 | H-YPLDLF-OH [Rubiscolin-6, H-Tyr-Pro-Leu-Asp-Leu-Phe-OH] | the most irrelevant with regard to the activity through the β-arrestin-mediated pathway; also recorded: equivalently negligible | 14.3 ± 3.2% | 14.3 ± 3.2% | 39.8 ± 20.5% | 316 nM | 103 ± 4.1% | 103 ± 4.1% | robust effect on DOR at 10^−5 concentration; also recorded: relatively stronger than rubiscolin-5 in activating the G-protein-mediated intracellular pathway | G-protein-biased DOR full agonists without affecting MOR and KOR | potency in analgesia relative to rubiscolin-5 [1]: about twice as potent in analgesia as rubiscolin-5; receptor affinity relative to rubiscolin-5 (receptor): higher receptor affinity
2 | H-YPLDL-OH [Rubiscolin-5, H-Tyr-Pro-Leu-Asp-Leu-OH] | the most irrelevant with regard to the activity through the β-arrestin-mediated pathway; also recorded: equivalently negligible | 27.5 ± 5.5% | 27.5 ± 5.5% | 9.6 ± 9% | 501 nM | 78.4 ± 6.7% | 78.4 ± 6.7% |  | G-protein-biased DOR full agonists without affecting MOR and KOR | G-protein bias (bias factor), previous study (DOR [6]): more G-protein-biased than rubiscolin-6
3 | C=CCN1C[C@H](C)N([C@H](c2ccc(C(=O)N(CC)CC)cc2)c2cccc(OC)c2)C[C@H]1C [SNC-80, (+)-4-[(aR)-a-((2S,5R)-4-allyl-2,5-dimethyl-1-piperazinyl)-3-methoxybenzyl]-N,N-diethylbenzamide, reference compound] |  |  |  |  |  |  |  |  |  | Emax, β-arrestin recruitment, DOR (DOR (CHO-K1 OPRD1); relative to 10^−5 M SNC-80, 90 min stimulation, luminescence, 10^−11–10^−5 M, means ± S.E.M. (n = 3–6), Figure 5B): 100.0 ± 2.6%
4 | C[C@@H](NC(=O)[C@@H](N)Cc1ccc(O)cc1)C(=O)NCC(=O)N(C)[C@@H](Cc1ccccc1)C(=O)NCCO [DAMGO, D-Ala(2)-N-Me-Phe(4)-Gly-ol(5)-enkephalin, reference compound] |  |  |  |  |  |  |  |  |  | Emax ([7]; relative to 10^−5 M ML335, cADDis sensor, 50 μM forskolin, 28 °C, 40 min reading, 10^−11–10^−5 M, means ± S.E.M. (n = 6–8), Figure 6, + p < 0.05 vs ML335, read-out: Emax, cAMP assay, MOR/DOR (Table 2)): 91.1 ± 5.4%; Emax ([4]; HEK293; read-out: Emax, cAMP assay, DOR (Table 1)): 90.9 ± 8.9%; Emax ([4]; HEK293; read-out: Emax, cAMP assay, DOR (Table 2)): 90.9 ± 8.9%
5 | ML335 [reference compound] | partially recruited β-arrestin through both MOR and DOR |  |  |  |  |  |  | full agonist for both MOR and DOR |  | pEC50, cAMP assay, MOR/DOR (Table 2) ([7]; -LogEC50, means ± S.E.M. (n = 6–8), Figure 6, + p < 0.05 vs ML335): 7.0 ± 0.1 M; effect through G-protein-mediated pathway (cAMP), MOR/DOR heteromer, in words ([7]; cADDis cAMP assay, compared with ML335): full agonist of MOR/DOR; Emax, cAMP assay, MOR/DOR (Table 2) ([7]; relative to 10^−5 M ML335, cADDis sensor, 50 μM forskolin, 28 °C, 40 min reading, 10^−11–10^−5 M, means ± S.E.M. (n = 6–8), Figure 6, + p < 0.05 vs ML335): 100.0 ± 4.2%; β-arrestin recruitment, MOR, in words (MOR (OPRM1)): partially recruited β-arrestin through both MOR and DOR; Emax, cAMP assay, MOR (Table 2) [2]: 112.5 ± 5.3%; effect through G-protein-mediated pathway (cAMP), MOR, in words [2]: full agonist for both MOR and DOR; pEC50, cAMP assay, MOR (Table 2) [2]: 7.6 ± 0.1 M; pEC50, cAMP assay, DOR (Table 2) ([4]; -LogEC50; HEK293 T7-tag-DOR; means ± S.E.M. (n = 6–8), Figure 6; # p < 0.05 vs SNC-80): 7.5 ± 0.1 ^# M; Emax, cAMP assay, DOR (Table 2) ([4]; relative to 10^−5 M SNC-80; HEK293 T7-tag-DOR; forskolin-stimulated; 10^−11–10^−5 M; means ± S.E.M. (n = 6–8), Figure 6; # p < 0.05 vs SNC-80): 111.6 ± 3.6%
6 | Oc1ccc2c3c1O[C@H]1c4[nH]c5c(c4C[C@@]4(O)[C@@H](C2)N(CC2CC2)CC[C@]314)C[C@@]1(O)[C@H]2Cc3ccc(O)c4c3[C@@]1(CCN2CC1CC1)[C@H]5O4 [norBNI, norbinaltorphimine] |  |  |  |  |  |  |  |  |  | antagonistic effect, CellKey, KOR [8]: completely suppressed the agonistic effects of the positive control
